The text below walks through data of publication PMC8143339, “PK/PD Modeling of the PDE7 Inhibitor—GRMS-55 in a Mouse Model of Autoimmune Hepatitis” (Pharmaceutics, 2021).

Read-outs that look alike come from different tables or passages of the source.

One may read the IC50 as the point on the concentration scale where inhibition reaches its midpoint.

In data set [1] the test system is PDE7A. Briefly: in vitro PDE7A inhibition assay. The data set is classed as biochemical. Particulars: ratio of IC50 values.
Data set [2] in a line: Pharmacokinetic study after IP administration. Particulars: for half-life: ip. Type of data set: in vivo, female BALB/c mice. Here is the method:
Pharmacokinetics of GRMS-55 was evaluated in female BALB/c mice following intraperitoneal (IP) administration of this compound at doses of 50 and 100 mg·kg^−1. The investigated compound was dissolved in a vehicle composed of DMSO, PEG 400, and water for injection at a ratio of 25:25:50 (v/v/v). Animals were exsanguinated at 5, 15, 30, 60, 90, and 120 min following GRMS-55 administration. Blood samples were collected, allowed to clot for 30 min at room temperature, and centrifuged at 3000× g for 10 min. The serum was separated and stored at −20 °C until analysis.
To analyze GRMS-55 concentrations in the mouse serum, we used the previously developed HPLC method with UV detection. A detailed description of this method was published in a supplementary material of our previous publication. Briefly, 10 μL of 4-(8-((furan-2-ylmethyl)amino)-1,3-dimethyl-2,6-dioxo-1,2,3,6-tetrahydro-7H-purin-7-yl)-N′-(2-hydroxybenzylidene)butanehydrazide solution as internal standard (IS) was added to tubes containing 100 μL of the analyzed serum. The samples were mixed with 20 μL of 1 M hydrochloric acid solution, subjected to extraction with 1 mL of dichloromethane, and centrifuged at 10,000× g for 8 min. The organic layers were transferred to new tubes and evaporated with nitrogen at 37 °C. Dry residues were then dissolved in 100 μL of mobile phase and transferred to glass vial inserts for HPLC analysis (LaChrom Elite, Merck-Hitachi, Darmstadt, Germany). The separation was achieved on a LiChrospher 100 RP-18 (250 × 4 mm) column (particle size of 5 μm) protected with a LiChroCART guard column (Merck, Darmstadt, Germany) using the mobile phase composed of 20 mM solution of KH2PO4 (pH = 4.5) and acetonitrile at a ratio of 45:55 (v/v) pumped at a flow rate of 1 mL min^−1 at ambient temperature. The analytical wavelength was set to 209 nm. In these conditions, the retention time of GRMS-55 was 9.2 min and for IS it was 5.3 min. The analytical method was validated according to FDA Bioanalytical Method Validation, Guidance for Industry. Specificity of the method was estimated by analyzing six different independent samples of the blank serum. […] The calibration curve was constructed by plotting the ratios of the peak area of the studied compound to IS vs. concentrations of GRMS-55 and it was linear in the tested concentration range, i.e., 0.050–20 mg·L^−1. Within runs and between runs, precision and accuracy met the acceptance criteria, i.e., they were less than 15% expressed as coefficients of variation % (CVs%) or ±15% of the nominal concentrations, respectively, for all quality control levels. Recoveries of the analyzed compound and IS assessed by comparing the peak areas of extracted samples with corresponding extracts of blanks spiked with the analyte post-extraction ranged from 94% to 98%. The lower limit of quantification was 0.05 mg·L^−1. GRMS-55 in serum samples was stable at room temperature for at least 12 h and at –20 °C for a period of 12 months. The stock solutions were stable for over one month at 4 °C.
Initially, non-compartmental analysis of the concentration–time data of GRMS-55 was performed. Subsequently, pharmacokinetic modeling was conducted. Different compartmental models with linear and non-linear elimination were tested, and the final pharmacokinetic model with the best goodness-of-fit criteria was chosen. Several measures of goodness-of-fit were evaluated, i.e., value of the objective function, Akaike Information Criterion, Bayesian Information Criterion, visual inspection of fitting, and a precision of parameter estimates expressed as CVs%. Pharmacokinetic model parameters were estimated using the ADAPT 5 software (BMSR, Los Angeles, CA, USA) based on the weighted least squares algorithm. […]

A further data set concerns PDE4B. Particulars: reported in previous publication; read-out: IC50 for PDE4B inhibition; cited from earlier work.
Data set [3] relates to PDE7A. Particulars: reported in previous publication; read-out: IC50 for PDE7A inhibition; cited from earlier work.
The next data set deals with PDE1B. More on the design: method as in PMID 31899535. Particulars: cited from earlier work.
Another data set concerns PDE3A. More on the design: method as in PMID 31899535. Particulars: cited from earlier work.
The subject of another data set is TNF-α production. More on the design: method as in PMID 31899535. Particulars: rat lipopolysaccharide-induced endotoxemia, PK/PD model; cited from earlier work.
On the set-up of data set [4]: method as in PMID 31899535. Particulars: cited from earlier work.

Consider `Cn1c(=O)c2c(nc(NCCc3ccccc3)n2CCCC(=O)NN=Cc2ccccc2O)n(C)c1=O` [GRMS-55, 4-(1,3-dimethyl-2,6-dioxo-8-(phenethylamino)-1,2,3,6-tetrahydro-7H-purin-7-yl)-N′-(2-hydroxybenzylidene)butanehydrazide], for which the “times weaker PDE7A inhibitor than BRL-50481” value with PDE7A [1] was 3.5. In addition, the “ka, absorption rate constant” value in data set [2] (IP 50 or 100 mg/kg, one-compartment model) worked out at 1.49 h⁻¹. The half-life in data set [2] (female, BALB/c, mouse, serum, mice, IP, read-out: terminal half-life) is about 30 min; in data set [2] (female, BALB/c, mouse, serum, non-compartmental approach, IP, read-out: serum terminal half-life (converted)), about 30 min; in data set [2] (female, BALB/c, mouse, serum, read-out: absorption half-life (ln2/ka)), 27.9 min; in data set [2] (female, BALB/c, mouse, serum, read-out: elimination half-life (ln2/ke)) it was 9.1 min; in data set [4] (male and female rats), “approximately 20 min”. Besides, the Vd/F in data set [2] (female, BALB/c, mouse, serum, IP 50 or 100 mg/kg, one-compartment model, read-out: Vd/F, apparent volume of distribution) worked out at 1.81 L/kg. The k el in data set [2] (female, BALB/c, mouse, serum, IP 50 or 100 mg/kg, one-compartment model, read-out: ke, elimination rate constant (converted)) was 0.00127 s⁻¹. Besides, the figures for the IC50 with PDE4B and in the data set on PDE7A [3] were 26.9 µM and 7.3 µM, respectively. For the same compound, the “potency of PDE1B suppression” value in the data set on PDE1B is given as “high”. In the data set on PDE3A, the “potency of PDE3A suppression” value is “moderate”. The “IC50, suppression of TNF-α production” value in the data set on TNF-α production is 1.06 µg/mL. For the same compound, the “apparent volume of distribution at steady state” value in data set [4] (male Wistar rats) is about 7 L/kg.
